Assay results from paper PMC12612973, “Inhibition of Human Amylin Aggregation: In Silico and In Vitro Studies” (ACS Omega, 2025).
Where two headings read alike, the source gives them in different places.

What was measured:
[1] = tested on: Pancreatic INS-1E cells; experiment: MTT cytotoxicity assay of amylin aggregates aged with or without inhibitors; type: cell-based; conditions: for effect on INS-1E cell viability in presence of amylin: INS-1E cells cultured with the MTDLs
Procedure: In this study, we utilized Pancreatic INS-1E cells (Department of Cell Physiology and Metabolism, University Medical Center, Switzerland) due to their close physiological similarity to native β-cells, making them highly relevant to our experimental objectives. Pancreatic INS-1E cells were grown in RPMI 1640 medium, supplemented with 2 mM glutamine, 5% fetal calf serum, 10 mM HEPES (pH 7.4), 1 mM sodium pyruvate, 50 μM 2-mercaptoethanol, 100 units/mL penicillin, and 0.1 mg/mL streptomycin. The culturing environment was maintained at 37 °C, 5% CO2, pH 7.4.
The toxicity of human amylin aggregates in the presence or absence of different compounds in the presence of 2% DMSO was assessed by the 3-(4,5-dimethylthiazol-2-yl)-2,5-diphenyltetrazolium bromide (MTT) reduction assay. The cells were cultured and then seeded into 96-well plates and grown for 24 h prior to exposure to different intermediates of amylin or a mixture of amylin with the MTDLs. The final amylin concentration within the culture medium was 5 μM. Cell viability was expressed as the percentage of MTT reduction, using cells treated with the same buffer volume as a reference (100% MTT reduction). The values (averages ± S.D.) were obtained from three independent experiments.

[2] = tested on: Aβ; design: method as in Panek et al.; conditions: based on ThT assay results; ref Panek et al.; read-out: IC50 of Aβ aggregation inhibition; cited from earlier work
[3] = target: T1, human amylin (hIAPP) (Homo sapiens, UniProt P10997); experiment: Dynamic light scattering (DLS) assay of amylin aggregation; type: biochemical; conditions: compound 10 μM, amylin 15 μM, 36 h incubation, 3 trials; read-out: DLS inhibition % (mean ± SEM)
T1 construct: purchased Bachem USA
T1 sequence (P10997 34-70 limits assumed): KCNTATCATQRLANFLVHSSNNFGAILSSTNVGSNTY
Procedure: A stock solution of amylin (1 mM) (purchased from Bachem USA), peptide sequence: […] amide (with disulfide bond between Cys2 and Cys7), was prepared in 100% hexafluoroisopropyl alcohol (HFIP) (purchased from Sigma-Aldrich) and stored at −20 °C. , Aliquots of amylin peptide were filtered through a 0.22 μm filter from the stock solution and freeze-dried. For kinetic experiments, 15 μM of amylin was prepared in 50 mM Tris-HCl buffer (pH 7.4), as investigated in previous studies by Chaari et al., , Samples of amylin were prepared in the presence or absence of inhibitors. Each compound was dissolved in DMSO and further diluted with the buffer used to solubilize the amylin. The final mixture contained 15 μM amylin, 10 μM of the test compound, 2% DMSO or 15 μM amylin, and 2% DMSO without the compound (negative control). Also 15 μM amylin, 10 μM of oleuropein aglycone and 2% DMSO was used as a positive control. The prepared solutions were incubated under physiological conditions (pH 7.4 and 37 °C) for amylin aggregation. Samples were incubated for 36 h to test for amylin aggregation, and measurements were conducted at different time points.
DLS (Zetasizer, Malvern) was used at a wavelength of 633 nm to measure the average diffusion coefficient distribution of amylin particles and the aggregation percentage. Samples were diluted 10-fold, and 50 μL was placed into a 96-well plate. The total light scattering intensity at a 90° angle was collected using a 10 s averaging acquisition time. Particle translational diffusion coefficients were calculated from autocorrelated light intensity data (usually 30–40 points) and converted to the hydrodynamic radius (R h) using the Stokes–Einstein equation. A distribution plot of intensity versus R h was calculated using the Sedfit 9.3 analysis software, and intensity-weighted mean R h values were obtained from each peak.

[4] = target: T1, human amylin (hIAPP); experiment: Fluorescence quenching of amylin: Stern-Volmer, binding and thermodynamic analysis; conditions: for quenching of amylin's intrinsic fluorescence: compound 0 to 20 μM, excitation 275 nm; for Kd: read-out: K b (binding constant) (converted); for ΔH / ΔS: Van't Hoff plot, 25/30/37 °C
Procedure: The fluorescence emission scans (wavelengths 290 to 500 nm) of 10-fold diluted amylin samples were acquired with a PerkinElmer model LS 55. The excitation wavelength was set at 275 nm to observe the fluorescence of the tyrosine residue exclusively. The integrated spectrum from 290 to 450 nm was used to obtain the relative fluorescence values of Tyr. Fluorescence measurements were performed in 1 cm light-path quartz cuvettes, with both excitation and emission bandwidths set to 5 nm. Sample fluorescence was determined by subtracting the fluorescence of the buffer. Each experiment was performed in duplicate. ,
Quenching titrations with acrylamide were carried out by adding varying amounts of a quencher stock solution (5 M) to the protein solution (∼15 μM diluted 10-fold). , The excitation wavelength was set at 275 nm, and the fluorescence emission spectra were scanned from 275 to 500 nm using a PerkinElmer model LS 55. The emission and excitation slits were set to 5 and 10 nm, respectively, and a 1 cm cuvette was used for all experiments. According to the Stern–Volmer equation, the integration area between 290 and 450 nm was used for data analysis. , Before analyzing the quenching data, the fluorescence emission spectra were corrected for volume changes, scattering effects, and the inner filter effect due to acrylamide absorption. , Each experiment was performed in duplicate. The quenching mechanism analysis by the Stern–Volmer equation was calculated according to eq . F 0 is the fluorescence intensity without the quencher, and F is the intensity with a quencher. K sv is the Stern–Volmer quenching constant, while Q is the quencher concentration. K q is the biomolecular quenching constant, and τ0 is the average lifetime of the fluorophore. 1 F0/F=1+Ksv[Q]=1+Kqτ0[Q]
The parameter n obtained from the fit is treated as an apparent slope/exponent (heterogeneous populations and partial fluorophore accessibility) and is not interpreted as the literal number of binding sites. 2 log(F0−F)/F=logKb+nlog[Q]
The Van’t Hoff equation was used to calculate the various thermodynamic interaction parameters. Equation was implemented to calculate the free energy change. 3 lnKb=−ΔH^°/RT+ΔS^°/R 4 ΔG^°=ΔH^°−TΔS^°=−RTlnKb

SMILES	effect on INS-1E cell viability in presence of amylin [1]	IC50 [2] [µM]	inhibition at 10 µM [3] [%]	K q (quenching constant) ([4]; 25 °C)	K sv (Stern–Volmer quenching constant) ([4]; 25 °C)	n (apparent slope/exponent, binding sites) ([4]; 25 °C)	ΔG ([4]; 25 °C)	quenching of amylin's intrinsic fluorescence ([4]; 25 °C)	Kd ([4]; 25 °C) [µM]	K q (quenching constant) ([4]; 30 °C)	K sv (Stern–Volmer quenching constant) ([4]; 30 °C)	n (apparent slope/exponent, binding sites) ([4]; 30 °C)	ΔG ([4]; 30 °C)	Kd ([4]; 30 °C) [µM]	K q (quenching constant) ([4]; 37 °C)	K sv (Stern–Volmer quenching constant) ([4]; 37 °C)	n (apparent slope/exponent, binding sites) ([4]; 37 °C)	ΔG ([4]; 37 °C)	Kd ([4]; 37 °C) [µM]	ΔH [4] [kcal/mol]	also measured
CC(C)(C)c1cccc(CNCC(O)CNCCC(c2ccccc2)c2ccccc2)c1 (stereo not shown) [Compound 18]	retained cell viability	3.09	99.2 ± 6.5	5.80 ± 0.17 10^12 M^–1 s^–1	3.43 ± 0.21 10^4 M^–1	0.60 ± 0.12	–5.99 ± 0.10 kJ/mol	substantial quenching	2500	4.57 ± 0.11 10^12 M^–1 s^–1	2.70 ± 0.39 10^4 M^–1	0.75 ± 0.10	–6.99 ± 0.20 kJ/mol	769	3.90 ± 0.12 10^12 M^–1 s^–1	2.30 ± 0.18 10^4 M^–1	0.92 ± 0.10	–8.38 ± 0.30 kJ/mol	286	12.74 ± 1.17	cell viability difference versus the sample with amylin fibrils ([1]; INS-1E cells 24 h, amylin aggregates aged 36 h with 2.92 μM compound 18 or 3.31 μM compound 21): approximately 30 % points; ΔS [4]: 199.00 ±14.13 J/mol K
CC(C)(C)c1cccc(CNCC(O)CCNCCC(c2ccccc2)c2ccccc2)c1 (stereo not shown) [Compound 22]	retained cell viability	1.22	99.2 ± 6.8	5.67 ± 0.16 10^12 M^–1 s^–1	3.35 ± 0.18 10^4 M^–1	0.80 ± 0.15	–5.05 ± 0.27 kJ/mol	substantial quenching	1000	3.89 ± 0.11 10^12 M^–1 s^–1	2.30 ± 0.27 10^4 M^–1	1.06 ± 0.10	–7.19 ± 0.17 kJ/mol	20.9	2.88 ± 0.12 10^12 M^–1 s^–1	1.70 ± 0.13 10^4 M^–1	1.15 ± 0.15	–10.23 ± 0.41 kJ/mol	10.7	29.637 ± 1.08	cell viability difference versus oleuropein aglycone ([1]; INS-1E cells 24 h, amylin aggregates aged 36 h with compound): around 8 % points; cell viability (MTT reduction) ([1]; INS-1E cells 24 h with amylin aggregates aged 36 h in presence of compound (2.61 μM of compound 22)): ~93%; cell viability higher than that of the control ([1]; cytotoxicity assay, discussion statement): ~40%; ΔS [4]: 433.00 ± 9.13 J/mol K
